Source: ChEMBL document CHEMBL1201862, “PubChem BioAssay data set” (2004)
Where a name gives a salt, the structure may show the parent alone.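 Each compound was tested at five concentrations against cells in 96-well plates for 48 hours. GI50 is the concentration that inhibits growth by half.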 The source made the active and inactive calls. Rule as the data show it: active = GI50 up to about 1.1 µM and inactive = higher.

Key:
Assay in all cases: NCI-60 cell line screen, 48 h
A498 = tested on: A498
T47D = tested on: T47D
SW-620 = tested on: SW-620
UACC-257 = tested on: UACC-257
SN12C = tested on: SN12C
SF-539 = tested on: SF-539
TK-10 = tested on: TK-10
Hs-578T = tested on: Hs-578T
SK-MEL-28 = tested on: SK-MEL-28
SF-268 = tested on: SF-268
SNB-75 = tested on: SNB-75
NCI-H460 = tested on: NCI-H460
MCF7 = tested on: MCF7
HOP-62 = tested on: HOP-62
MDA-N = tested on: MDA-N
SK-MEL-2 = tested on: SK-MEL-2
CCRF-CEM = tested on: CCRF-CEM
KM12 = tested on: KM12
RPMI-8226 = tested on: RPMI-8226
UACC-62 = tested on: UACC-62
HCT-116 = tested on: HCT-116
HT-29 = tested on: HT-29
K562 = tested on: K562
SNB-19 = tested on: SNB-19
MOLT-4 = tested on: MOLT-4
786-0 = tested on: 786-0
NCI-H23 = tested on: NCI-H23
HL-60 = tested on: HL-60
EKVX = tested on: EKVX
MDA-MB-435 = tested on: MDA-MB-435
DU-145 = tested on: DU-145
IGROV-1 = tested on: IGROV-1
BT-549 = tested on: BT-549
OVCAR-5 = tested on: OVCAR-5
SK-OV-3 = tested on: SK-OV-3
NCI/ADR-RES = tested on: NCI/ADR-RES
SF-295 = tested on: SF-295
HCC 2998 = tested on: HCC 2998
OVCAR-8 = tested on: OVCAR-8
RXF 393 = tested on: RXF 393
SR = tested on: SR
ACHN = tested on: ACHN
NCI-H522 = tested on: NCI-H522
A549 = tested on: A549
HCT-15 = tested on: HCT-15
M14 = tested on: M14
NCI-H226 = tested on: NCI-H226
U-251 = tested on: U-251
UO-31 = tested on: UO-31
COLO 205 = tested on: COLO 205
Malme-3M = tested on: Malme-3M
OVCAR-3 = tested on: OVCAR-3
PC-3 = tested on: PC-3
HOP-92 = tested on: HOP-92
OVCAR-4 = tested on: OVCAR-4
SK-MEL-5 = tested on: SK-MEL-5
CAKI-1 = tested on: CAKI-1
LOX IMVI = tested on: LOX IMVI
MDA-MB-231 = tested on: MDA-MB-231

`Cc1ccc(C)c(NC(=O)C(=O)C(c2cnc3ccc([N+](=O)[O-])cc3n2)[N+](=O)[O-])c1` (centres undefined) was tested, and the GI50 (A498) was 33.2 µM (inactive), the GI50 (T47D) was 38.5 µM (inactive) and the GI50 (SW-620) was 30 µM (inactive). For the same molecule, the GI50 (UACC-257) was 38.6 µM (inactive), the GI50 (SN12C) was 59.7 µM (inactive) and the GI50 (SF-539) was > 100 µM (inactive). For the same molecule, the GI50 (TK-10) was 27.3 µM (inactive), the GI50 (Hs-578T) was > 100 µM (inactive) and the GI50 (SK-MEL-28) was > 100 µM (inactive). The GI50 (SF-268) was > 100 µM (inactive), the GI50 (SNB-75) was 81.7 µM (inactive) and the GI50 (NCI-H460) was 42.7 µM (inactive). For the same molecule, the GI50 (MCF7) was > 100 µM (inactive), the GI50 (HOP-62) was 20.9 µM (inactive) and the GI50 (MDA-N) was 70.6 µM (inactive). For the same molecule, the GI50 (SK-MEL-2) was > 100 µM (inactive), the GI50 (CCRF-CEM) was 24.4 µM (inactive) and the GI50 (KM12) was 20.1 µM (inactive). The GI50 (RPMI-8226) was 0.102 µM (active), the GI50 (UACC-62) was 64.1 µM (inactive) and the GI50 (HCT-116) was 58.6 µM (inactive). The GI50 (HT-29) was 61.2 µM (inactive), the GI50 (K562) was 41.4 µM (inactive) and the GI50 (SNB-19) was > 100 µM (inactive). For the same molecule, the GI50 (MOLT-4) was 25.9 µM (inactive), the GI50 (786-0) was 52.8 µM (inactive) and the GI50 (NCI-H23) was > 100 µM (inactive). For the same molecule, the GI50 (HL-60) was 14.9 µM (inactive), the GI50 (EKVX) was 30.8 µM (inactive) and the GI50 (MDA-MB-435) was 46.2 µM (inactive). For the same molecule, the GI50 (DU-145) was 77.4 µM (inactive), the GI50 (IGROV-1) was 26.5 µM (inactive) and the GI50 (BT-549) was 53.5 µM (inactive). For the same molecule, the GI50 (OVCAR-5) was > 100 µM (inactive), the GI50 (SK-OV-3) was 32.4 µM (inactive) and the GI50 (NCI/ADR-RES) was 25.8 µM (inactive). The GI50 (SF-295) was > 100 µM (inactive), the GI50 (HCC 2998) was 55.8 µM (inactive) and the GI50 (OVCAR-8) was 27 µM (inactive). The GI50 (RXF 393) was 50.1 µM (inactive), the GI50 (SR) was 34.4 µM (inactive) and the GI50 (ACHN) was 26.6 µM (inactive). For the same molecule, the GI50 (NCI-H522) was 21.1 µM (inactive), the GI50 (A549) was 58.3 µM (inactive) and the GI50 (HCT-15) was 76.6 µM. For the same molecule, the GI50 (M14) was 56.9 µM (inactive), the GI50 (NCI-H226) was 34.1 µM (inactive) and the GI50 (U-251) was 40.8 µM (inactive). For the same molecule, the GI50 (UO-31) was 29.2 µM (inactive), the GI50 (COLO 205) was 60.8 µM (inactive) and the GI50 (Malme-3M) was > 100 µM (inactive). For the same molecule, the GI50 (OVCAR-3) was 68.1 µM (inactive), the GI50 (PC-3) was 52.1 µM (inactive) and the GI50 (HOP-92) was 36.2 µM (inactive). For the same molecule, the GI50 (OVCAR-4) was 17.3 µM (inactive) and the GI50 (SK-MEL-5) was 48.3 µM (inactive).
`CC(=O)N/N=C1/CC[C@@]2(C)C(=CC[C@H]3C4CCC(C(C)CCCC(C)C)[C@@]4(C)CCC32)C1(C)C` (some centres undefined) was tested, and the GI50 (T47D) was 70.5 µM (inactive), the GI50 (SW-620) was 53.3 µM (inactive) and the GI50 (UACC-257) was 36.6 µM (inactive). The GI50 (SN12C) was 51.4 µM (inactive), the GI50 (TK-10) was > 100 µM (inactive) and the GI50 (Hs-578T) was > 100 µM (inactive). The GI50 (CAKI-1) was > 100 µM (inactive), the GI50 (SK-MEL-28) was > 100 µM (inactive) and the GI50 (SF-268) was 63 µM (inactive). For the same molecule, the GI50 (SNB-75) was > 100 µM (inactive), the GI50 (NCI-H460) was 32.1 µM (inactive) and the GI50 (MCF7) was 53.7 µM (inactive). For the same molecule, the GI50 (HOP-62) was > 100 µM (inactive), the GI50 (MDA-N) was > 10 µM (inactive) and the GI50 (SK-MEL-2) was 58.3 µM (inactive). For the same molecule, the GI50 (CCRF-CEM) was 13.8 µM (inactive), the GI50 (KM12) was 46.3 µM (inactive) and the GI50 (RPMI-8226) was > 100 µM (inactive). The GI50 (UACC-62) was > 100 µM (inactive), the GI50 (HCT-116) was 48.8 µM (inactive) and the GI50 (HT-29) was 31.5 µM (inactive). The GI50 (K562) was 15.9 µM (inactive), the GI50 (SNB-19) was 75.3 µM (inactive) and the GI50 (MOLT-4) was 11 µM (inactive). The GI50 (786-0) was 43.7 µM (inactive), the GI50 (NCI-H23) was 70 µM (inactive) and the GI50 (HL-60) was 42 µM (inactive). For the same molecule, the GI50 (EKVX) was > 100 µM (inactive), the GI50 (MDA-MB-435) was 82 µM (inactive) and the GI50 (DU-145) was > 100 µM (inactive). For the same molecule, the GI50 (IGROV-1) was 57.4 µM (inactive), the GI50 (BT-549) was > 100 µM (inactive) and the GI50 (OVCAR-5) was > 100 µM (inactive). The GI50 (SK-OV-3) was > 100 µM (inactive), the GI50 (NCI/ADR-RES) was 47.8 µM (inactive) and the GI50 (SF-295) was 22.3 µM (inactive). For the same molecule, the GI50 (OVCAR-8) was 51.1 µM (inactive), the GI50 (SR) was 50.9 µM (inactive) and the GI50 (ACHN) was 62.4 µM (inactive). The GI50 (NCI-H522) was 58.9 µM (inactive), the GI50 (A549) was 31.1 µM (inactive) and the GI50 (HCT-15) was 40.6 µM. For the same molecule, the GI50 (M14) was 48 µM (inactive), the GI50 (NCI-H226) was > 100 µM (inactive) and the GI50 (U-251) was 75.5 µM (inactive). The GI50 (LOX IMVI) was 3.94 µM (inactive), the GI50 (UO-31) was 82 µM (inactive) and the GI50 (COLO 205) was 32.9 µM (inactive). For the same molecule, the GI50 (Malme-3M) was > 100 µM (inactive), the GI50 (OVCAR-3) was 74.8 µM (inactive) and the GI50 (PC-3) was 30.1 µM (inactive). The GI50 (HOP-92) was > 100 µM (inactive), the GI50 (OVCAR-4) was 50.5 µM (inactive) and the GI50 (SK-MEL-5) was 37.4 µM (inactive).
In the case of `CC/C(=C(\c1ccccc1)c1ccc(OCCN(C)C)cc1)c1ccccc1` [TAMOXIFEN CITRATE], the GI50 (A498) is reported as 4.38 µM (inactive), the GI50 (T47D) is reported as 3.05 µM (inactive) and the GI50 (UACC-257) is reported as 4.81 µM (inactive). The GI50 (MDA-MB-231) was 4.97 µM (inactive), the GI50 (TK-10) was 5.18 µM (inactive) and the GI50 (Hs-578T) was 5.58 µM (inactive). For the same molecule, the GI50 (MCF7) was 1.65 µM (inactive), the GI50 (HOP-62) was 5.12 µM (inactive) and the GI50 (MDA-N) was 4.68 µM (inactive). The GI50 (SK-MEL-2) was 5.45 µM (inactive), the GI50 (CCRF-CEM) was 4.75 µM (inactive) and the GI50 (UACC-62) was 5.26 µM (inactive). For the same molecule, the GI50 (HCT-116) was 4.8 µM (inactive), the GI50 (HT-29) was 3.44 µM (inactive) and the GI50 (K562) was 3.3 µM (inactive). For the same molecule, the GI50 (MOLT-4) was 3.4 µM (inactive), the GI50 (786-0) was 4.43 µM (inactive) and the GI50 (NCI-H23) was 5.93 µM (inactive). For the same molecule, the GI50 (EKVX) was 7.03 µM (inactive), the GI50 (IGROV-1) was 5.75 µM (inactive) and the GI50 (BT-549) was 6.07 µM (inactive). For the same molecule, the GI50 (NCI/ADR-RES) was 5.28 µM (inactive), the GI50 (HCC 2998) was 3.81 µM (inactive) and the GI50 (OVCAR-8) was 6.32 µM (inactive). For the same molecule, the GI50 (RXF 393) was 3.87 µM (inactive), the GI50 (SR) was 4.86 µM (inactive) and the GI50 (ACHN) was 6.1 µM (inactive). The GI50 (A549) was 5.79 µM (inactive), the GI50 (HCT-15) was 4.67 µM and the GI50 (M14) was 4.42 µM (inactive). For the same molecule, the GI50 (NCI-H226) was 6.34 µM (inactive), the GI50 (LOX IMVI) was 3.99 µM (inactive) and the GI50 (UO-31) was 4.14 µM (inactive). For the same molecule, the GI50 (COLO 205) was 4.1 µM (inactive), the GI50 (OVCAR-3) was 5 µM (inactive) and the GI50 (PC-3) was 4.18 µM (inactive). The GI50 (HOP-92) was 4.57 µM (inactive), the GI50 (OVCAR-4) was 5.6 µM (inactive) and the GI50 (SK-MEL-5) was 4.17 µM (inactive).
